For one experiment, the target named is SHP2 (Homo sapiens, UniProt Q06124). Conditions: J. Med. Chem. 2014, 57, 6594-6609; read-out: enzyme activity IC50; cited from earlier work.
The conditions of experiment [1]: J. Med. Chem. 2014, 57, 6594-6609; read-out: cellular activity IC50; cited from earlier work.
Another experiment concerns 4T1. Description: CellTiter-Glo cell proliferation inhibition, 4T1. Conditions: 4T1 (mouse breast cancer cell line), 72 hours; read-out: Example IC50 (µM) 4T1. The experiment is classed as cell-based. From the text: (§1) This experiment used the CellTiter-Glo® Luminescent Cell Viability Assay kit from Promega to evaluate the inhibitory activity of the disclosed compounds on the proliferation of the following cell lines: 4T1 (mouse breast cancer cell line), A20 (mouse B-cell lymphoma cell line), A2780 (human ovarian cancer cell line), AsPC-1 (pancreatic cancer cell line), B16F10 (mouse melanoma cell line), BT549 (human breast cancer cell line), CT26 (mouse colon cancer cell line), EMT6 (mouse breast cancer cell line), HCT116 (colorectal cancer cell line), Jurket (acute leukemia cell line), KP-4 (pancreatic cancer cell line), LL/2 (mouse lung cancer cell line), MCF7 (breast cancer cell line), […] NCI-H358 (lung cancer cell line), NCI-H727 (gastric cancer cell line), NCI-1944 (lung cancer cell line), Pan 04.03 (pancreatic cancer cell line), SK-BR-3 (breast cancer cell line), THP-1 (leukemia cell line), TOV21G (ovarian cancer cell line), U87MG (glioblastoma cell line), and UM-UC-a (bladder cancer cell line). […]
(§2) Cells were cultured according to the instructions provided by the cell supplier (Nanjing Kebai Biotechnology Co., Ltd.). […] Suspension or adherent cells were collected, and cell viability was determined using the trypan blue exclusion method, ensuring that cell viability was above 90%. […]

Another experiment deals with A20. Description: CellTiter-Glo cell proliferation inhibition, A20. The experiment is classed as cell-based. Conditions: A20 (mouse B-cell lymphoma cell line), 72 hours; read-out: Example IC50 (µM) A20.
Source text: (§3) This experiment used the CellTiter-Glo® Luminescent Cell Viability Assay kit from Promega to evaluate the inhibitory activity of the disclosed compounds on the proliferation of the following cell lines: 4T1 (mouse breast cancer cell line), A20 (mouse B-cell lymphoma cell line), A2780 (human ovarian cancer cell line), AsPC-1 (pancreatic cancer cell line), B16F10 (mouse melanoma cell line), BT549 (human breast cancer cell line), CT26 (mouse colon cancer cell line), EMT6 (mouse breast cancer cell line), HCT116 (colorectal cancer cell line), Jurket (acute leukemia cell line), KP-4 (pancreatic cancer cell line), LL/2 (mouse lung cancer cell line), MCF7 (breast cancer cell line), […] NCI-H358 (lung cancer cell line), NCI-H727 (gastric cancer cell line), NCI-1944 (lung cancer cell line), Pan 04.03 (pancreatic cancer cell line), SK-BR-3 (breast cancer cell line), THP-1 (leukemia cell line), TOV21G (ovarian cancer cell line), U87MG (glioblastoma cell line), and UM-UC-a (bladder cancer cell line).
(§4) All cell lines were purchased from Nanjing Kebai Biotechnology Co., Ltd. The following materials were also used in the experiment: RPMI-1640 media (HyClone, catalog number #SH30022.01), McCoy's 5A media (Thermo Fisher, catalog number #16600-082), MCDB 105 media (Sigma, catalog number #117-500), Medium 199 (Thermo Fisher, catalog number #11150-059), MEM media (Thermo Fisher, catalog number #11095-080), DMEM media (HyClone, catalog number #SH30027.01), fetal bovine serum (FBS) (ExCell, catalog number # M4530), Sodium Pyruvate (100Mm) (Thermo Fisher, catalog number #11360-070), and MEM NEAA (100X) (Thermo Fisher). […]
as §2
A general note: In ATP-based viability assays light output follows the ATP content of the culture.

Another experiment has as its system BT549. In words: CellTiter-Glo cell proliferation inhibition, BT549. The experiment is classed as cell-based. Conditions: BT-549; BT549 (human breast cancer cell line), 72 hours; read-out: Example IC50 (µM) BT549.
Source text: as §1, §2

In another experiment the test system is CT26. In words: CellTiter-Glo cell proliferation inhibition, CT26. The class given is cell-based. Conditions: CT26 (mouse colon cancer cell line), 72 hours; read-out: Example IC50 (µM) CT26.
Source text: as §1, §2

The next experiment has as its system MCF7. In words: CellTiter-Glo cell proliferation inhibition, MCF7. The class given is cell-based. Conditions: Homo sapiens; MCF7 (breast cancer cell line), 72 hours; read-out: Example IC50 (µM) MCF7.
Source text: as §1, §2

The next experiment relates to NCI-H358. In words: CellTiter-Glo cell proliferation inhibition, NCI-H358. The class given is cell-based. Conditions: Homo sapiens; NCI-H358 (lung cancer cell line), 2D, 72 hours; read-out: Example IC50 (µM) NCI-H358(2D).
Source text: as §3, §4, §2

Another experiment has as its system THP-1. Description: CellTiter-Glo cell proliferation inhibition, THP-1. The class given is cell-based. Conditions: Homo sapiens; THP-1 (leukemia cell line), 72 hours; read-out: Example IC50 (µM) THP-1.
Source text: as §3, §4, §2

For another experiment, the system named is TOV21G. In words: CellTiter-Glo cell proliferation inhibition, TOV21G. The experiment is classed as cell-based. Conditions: Homo sapiens; TOV21G (ovarian cancer cell line), 72 hours; read-out: Example IC50 (µM) TOV21G.
Source text: as §1, §2

The test system of the next experiment is U87MG. In words: CellTiter-Glo cell proliferation inhibition, U87MG. The experiment is classed as cell-based. Conditions: Homo sapiens, U-87 MG; U87MG (glioblastoma cell line), 72 hours; read-out: Example IC50 (µM) U87MG.
Source text: as §1, §2

In a further experiment the test system is Jurket. In words: CellTiter-Glo cell proliferation inhibition, Jurket. The class given is cell-based. Conditions: Jurket (acute leukemia cell line), 72 hours; read-out: Example IC50 (µM) Jurket.
Source text: as §1, §2

Another experiment relates to KP-4. Description: CellTiter-Glo cell proliferation inhibition, KP-4. The class given is cell-based. Conditions: Homo sapiens; KP-4 (pancreatic cancer cell line), 72 hours; read-out: Example IC50 (µM) KP-4.
Source text: as §1, §2

The test system of a further experiment is LL/2. In words: CellTiter-Glo cell proliferation inhibition, LL/2. The experiment is classed as cell-based. Conditions: LL/2 (mouse lung cancer cell line), 72 hours; read-out: Example IC50 (µM) LL/2.
Source text: as §1, §2

The test system of another experiment is NCI-H727. Description: CellTiter-Glo cell proliferation inhibition, NCI-H727. The experiment is classed as cell-based. Conditions: Homo sapiens; […]; read-out: Example IC50 (µM) NCI-H727.
Source text: as §1, §2

SHP2, sequence (Q06124 whole entry): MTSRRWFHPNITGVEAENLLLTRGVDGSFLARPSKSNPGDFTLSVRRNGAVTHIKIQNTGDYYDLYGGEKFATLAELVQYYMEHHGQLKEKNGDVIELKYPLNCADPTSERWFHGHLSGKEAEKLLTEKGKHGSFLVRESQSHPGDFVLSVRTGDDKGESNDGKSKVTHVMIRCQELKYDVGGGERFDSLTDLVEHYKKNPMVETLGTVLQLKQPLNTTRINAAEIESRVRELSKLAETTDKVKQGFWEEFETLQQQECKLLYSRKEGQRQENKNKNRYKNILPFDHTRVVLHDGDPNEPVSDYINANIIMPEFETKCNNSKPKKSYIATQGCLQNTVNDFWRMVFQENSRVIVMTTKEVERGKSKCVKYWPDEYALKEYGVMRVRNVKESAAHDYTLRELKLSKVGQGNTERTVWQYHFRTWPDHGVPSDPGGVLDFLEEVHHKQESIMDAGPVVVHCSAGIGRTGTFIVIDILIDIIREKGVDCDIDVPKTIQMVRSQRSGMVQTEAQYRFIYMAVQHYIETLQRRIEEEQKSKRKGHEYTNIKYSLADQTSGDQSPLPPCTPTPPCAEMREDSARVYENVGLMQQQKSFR

Consider `Cn1c(-c2cccc(NC(=O)C(=O)Nc3ccc(-c4ccsc4)cc3)c2)c(I)c2cc(C(=O)O)c(O)cc21` [Example 11a-1, reference compound], for which the IC50 is approximately 200 nM at SHP2 and not below 1000 nM in experiment [1].
Take `O=C(Nc1ccc(-c2cc3cc(F)c(-c4nnn[nH]4)cc3n2C2CCC2)cc1)C(=O)Nc1ccc(N2CCC3(CCC(O)C3)CC2)cc1` (stereo not drawn) [Example 100]: the IC50 in the experiment on 4T1 was determined as 0.14 µM; with A20, 0.128 µM; with BT549 it was 0.047 µM; in the experiment on CT26, 0.134 µM; in the experiment with MCF7, 0.05 µM; with NCI-H358, 0.063 µM. Also, the IC50 worked out at 0.07 µM in the experiment on THP-1, 0.106 µM with TOV21G and 0.075 µM in the experiment on U87MG.
For `O=C(Nc1ccc(-c2csc(CO)c2)cc1)C(=O)Nc1ccc(-c2cc3cc(F)c(-c4nnn[nH]4)cc3n2C2CCC2)cc1` [Example 1], the IC50 is 0.125 µM with 4T1; 0.077 µM in the experiment on A20; 0.121 µM in the experiment on BT549; 0.123 µM with CT26; 0.165 µM in the experiment on Jurket; 0.228 µM with KP-4. Besides, the IC50 in the experiment with LL/2 was 0.207 µM; in the experiment with MCF7 it was 0.083 µM; in the experiment with NCI-H358 it was 0.074 µM; in the experiment with NCI-H727 it was 0.225 µM; with THP-1, 0.086 µM; with TOV21G it was 0.112 µM. The IC50 in the experiment with U87MG came out at 0.276 µM.
Consider `CC1(n2c(-c3ccc(NC(=O)C(=O)Nc4ccc(N5CCC6(CCOC6)CC5)cc4)cc3)cc3cc(F)c(-c4nnn[nH]4)cc32)CCC1` [Example 68], for which the IC50 is 0.075 µM in the experiment with A20, 0.072 µM in the experiment on NCI-H358 and 0.063 µM with THP-1.

(Values after patent EP4741383A1, “COMPOUND AND USE THEREOF AS ANTI-CANCER DRUG” (Tyligand Bioscience (Shanghai) Limited, priority 2023, dated 2025).)
